The values below come from US12011452B2, “Compositions and methods for treatment of mitochondrial respiratory chain dysfunction and other mitochondrial disorders” (The Children's Hospital of Philadelphia, priority 2018, dated 2024).

The test system of series [1] is DLD-1 deficient (did-1 RNAi) C. elegans. Put plainly: Animal size (length) of DLD-1 deficient (dld-1 RNAi) worms, COPAS Biosorter. Conditions: for Size: dld-1 RNAi worms, conc.: Nicotinic Acid 1 mM, Riboflavin 10 uM, Thiamine 25 mM, L-Carnitine 100 uM, Folinic Acid 10 uM, Glucose 10 uM, DCA 25 mM, Cysteamine 100 um, NAC 2.5 Mm, AICAR 500 uM, Hydralazine 200 uM, Lithium Chloride 10 mM, Cyclohexamide 2 uM, Arginine 10 mM, Taurine 800 uM, Resveratrol 50 uM, Rapamycin 2.5 nM, Probucol 5 uM, Lipoic Acid 10 uM, Vitamin E 250 uM; for increase in worm growth (length): DLD-1 RNAi worms treated from birth, 50 μM Riboflavin, 25 mM Thiamine, adult day 1. It counts as in vivo. Here is the method: RNAi feeding—DLD-1 RNAi clone (LLC1.3) was obtained from the Ahringer RNAi collection and was sequence confirmed prior to use. The vector L4440 was utilized as a control.
(§1) Brood size analysis—Worms were synchronized by picking ten to fifteen N2 gravid adult worms onto NGM plates containing 0.2 mM IPTG, ampicillin and tetracycline spread with DLD-1 (LLCI.3) or L4440 bacteria and allowed to lay eggs for 2-2.5 hours. A single L4 larvae from the egg lay was placed on a 4 mm dish containing NGM and corresponding RNAi clone and allowed to lay eggs for 24 hours before being transferred to a fresh 4 mm NGM plate. Worms were transferred to fresh plates for 5 days and progeny were counted from each plate. Western blot analysis—Approximately 500 young adult worms were briefly washed with S. basal media before resuspension in 250 uL of RIPA buffer (50 mM Tris HCl, pH 8.0, 150 mM NaCl, 1.0% NP-40, 0.5% sodium deoxycholate, 1.0 mM EDTA, 0.1% SDS) containing a 1/100 dilution of Protease inhibitor cocktail (Sigma). Worms were lysed using a mechanical hand homogenizer and pestle on ice and the resulting lysate was maintained at constant agitation for 30 minutes at 4° C. Lysate was subsequently centrifuged for 20 minutes at 16,000 rpm and the supernatant was removed. Protein concentration was determined using the Pierce BCA protein assay kit. 30 ug of whole cell lysate was utilized and blots were probed with anti-LAD monoclonal antibody at a 1:7500 dilution (abcam) to detect the DLD-1 protein. As a loading control blots were additionally probed with anti-Beta tubulin (source) at a […]. Chemotaxis Assay—Chemotaxis analysis was performed as has been previously described (Haroon, S. J. of Cell Reports (2018); pmid:29562168). In brief, approximately 30 worms were collected and washed with S. basal media. Worms were placed 5 cm away from a spot containing 2 uL of 10% isoamyl alcohol dissolved in 100% ethanol and 1 uL of 10% sodium azide. After one hour distance traveled by each worm was marked and analyzed via image J. Length Analysis—A synchronized population of worms grown on L4440 and LLCI.3 RNAi clones were monitored from the L4 stage of development till day 5 of adulthood. On the day of length analysis […] Quantification of Hsp6::GFP induction—A synchronized egg lay using 15-20 Hsp6::GFP gravid young adult worms on L4440 or LLCI.3 RNAi clones was performed to induce depletion of DLD-1 protein. Day 1 young adult worms were washed once in 4-5 mL of S. basal in a 50 mL conical tube and pelleted by centrifugation at 1300×g for 1 minute. Spent S. basal was removed and worms were resuspended in a final volume of 10 mL in preparation for biosorter analysis. An excitation wavelength of 488 nm and emission filter of 510 nm was utilized to measure induction of Hsp6::GFP induction in individual worms. Experiments were conducted with approximately 300 worms per sample with three biological replicates for each condition tested.
(§2) DLD depletion in C. elegans was achieved by feeding wild-type (N2 Bristol) worms E. coli expressing a dsRNA targeting DLD-1 messenger RNA. Brood size, survival, activity, growth (length), DLD-1 expression, and mitochondrial unfolded protein response (UPR^mt) were quantified in the resulting DLD-1^−/− animals. High throughput semi-automated analyses of animal growth (length) and mitochondrial stress response (UPR^mt) were also measured in day 1 adult worm populations using the COPAS Biosorter (Union Biometrica).
(§3) Therapeutic impact on DLD-1^−/− C. elegans UPR^mt induction and growth (length), as well as DLDH−/− zebrafish survival, liver morphology, and swimming behavior were tested for 5 therapies, including a PDH activator (dichloroacetate, DCA), PDH cofactors (thiamine, riboflavin, lipoic acid), and a lipid lowering drug that functions as a signaling modifier to inhibit mTORCI and activate AMPK and PPAR (probucol).

The next series relates to hsp-6p::GFP. Put plainly: Mitochondrial stress (UPRmt) hsp-6p::GFP induction in dld-1 RNAi worms. It counts as in vivo, C. elegans. Conditions: for HSP-6P::GFP: dld-1 RNAi worms, conc.: Nicotinic Acid 1 mM, Riboflavin 10 uM, Thiamine 25 mM, L-Carnitine 100 uM, Folinic Acid 10 uM, Glucose 10 uM, DCA 25 mM, Cysteamine 100 um, NAC 2.5 Mm, AICAR 500 uM, Hydralazine 200 uM, Lithium Chloride 10 mM, Cyclohexamide 2 uM, Arginine 10 mM, Taurine 800 uM, Resveratrol 50 uM, Rapamycin 2.5 nM, Probucol 5 uM, Lipoic Acid 10 uM, Vitamin E 250 uM. On the procedure:
as §1, §2, §3

Another series concerns dldh−/− zebrafish. Kind of series: dldh-/- zebrafish larvae: liver size and survival. It counts as in vivo. Conditions: 10 μM lipoic acid; for decrease in liver size / liver disease compared to untreated DLDH−/− larvae: treatment from 2 dpf, 5 μM Probucol, 8 dpf. Here is the method:
FIGS. 20A-20B: Treatment of zebrafish larvae from 2 dpf with 10 μM lipoic acid and 5 μM Probucol. (FIG. 20A) Images were taken of larvae at 8 dpf and liver area was measured using Image J. P<0.05. (FIG. 20B) Survival analysis. Death was defined by absence of heartbeat.
C. elegans dld-1+/− heterozygous mutant worms display hallmarks of mitochondrial dysfunction such as decreased lifespan and activity. (FIGS. 12A, 12B), although this is likely attributed to their balancer chromosomal mutation (unc) since homozygosity for DLD knockout is lethal in C. elegans. While we have employed a previously identified C. elegans mutant, RNAi can also be employed to characterize variable to complete gene knockout mutants. DLDH deletion zebrafish mutants lacking a portion of exon 1 were generated using CRISPR/Cas9 gene editing via microinjection at the 1-cell stage. (FIG. 13). Animal viability, organ development, swim behavior, DLD-1 protein expression, and electron transport chain enzyme activity analyses were evaluated in DLDH mutant relative to AB (wild-type) zebrafish. Liver physiology was studied by Oil Red 0 staining and transmission electron microscopy. […] Control and dldh CRISPR injected Zebrafish Larvae lateral viewed at 1.6× magnification are shown in FIG. 14A. dldh−/− larvae show swollen liver and deflated swim bladder compared to wild-type controls at 8 dpf. FIG. 14B. Survival analysis comparing control and dldh−/− zebrafish, N=30 larvae for each group. Death was defined by absence of a heartbeat. FIGS. 14C and 14D show protection from rotenone induced Complex I dysfunction using the three component composition comprising NAC, NA and glucose.
as §3

Series [2] relates to SURF1-del1−/− zebrafish. Particulars: 6-7 dpf.
A further series deals with gas-1(fc21) C. elegans. Kind of series: Lifespan of gas-1(fc21) Complex I NDUFS2 mutant worms. It counts as in vivo. Conditions: administered at development (L1); previous studies in applicant's lab.
Series [3] relates to SURF1-del1−/− zebrafish. Put plainly: SURF1 knockout zebrafish pre-treatment before NaN3 exposure: brain death, startle response. It counts as in vivo. Particulars: pre-treated from 5 dpf, 45 μM NaN3 from 6 dpf, assessed 7 dpf.
Source text: The phenotypes assessed can include without limitation, swimming activity or swimming fatigue, organ structural impairment or dysfunction gray brain alterations in mitochondrial physiology (=brain death) (FIG. 36C), heart rate, startle (tap) response (stimulus on plate), and touch response (stimulus on animal).

Consider `Nc1nc(=O)c2c([nH]1)NCC(CNc1ccc(C(=O)N[C@@H](CCC(=O)O)C(=O)O)cc1)N2C=O` (mixture of isomers) [Folinic Acid], for which the Size result in series [1] is “No Effect”. In the series with hsp-6p::GFP, the “HSP-6P::GFP” value is “Increase”.
For `O=C(O)CCCC[C@@H]1CCSS1` (racemic) [Lipoic Acid], the Size result in series [1] is “No Effect”. Further, the “HSP-6P::GFP” value with hsp-6p::GFP is reported as “Increase”. In addition, the “extension of animal survival” value in the series on dldh−/− zebrafish (pre-treatment from 2 dpf) was 3 days. Moreover, the “decrease in liver size / liver disease compared to untreated DLDH−/− larvae” value in the series with dldh−/− zebrafish came out at 58%.
For the compound `NC(=O)c1ncn([C@@H]2O[C@H](CO)[C@@H](O)[C@H]2O)c1N` [AICAR], in series [1], the Size entry is recorded as “No Effect”. The “HSP-6P::GFP” value in the series on hsp-6p::GFP is reported as “Decrease”.
As to `N=C(N)NCCC[C@H](N)C(=O)O` [Arginine], the Size result in series [1] is recorded as “No Effect”. Also, the “HSP-6P::GFP” value in the series on hsp-6p::GFP is recorded as “Increase”.
For `C[C@@H]1C[C@@H]([C@H](O)CC2CC(=O)NC(=O)C2)C(=O)[C@@H](C)C1` [Cyclohexamide], in that order: “No Effect” and “Increase”.
Consider `NCCS` [Cysteamine], for which the Size result in series [1] was “No Effect”. Moreover, the “HSP-6P::GFP” value with hsp-6p::GFP was “No Effect”.
Take `NNc1nncc2ccccc12` [Hydralazine]: in the series with hsp-6p::GFP, the “HSP-6P::GFP” value was “No Effect”.
For `C[N+](C)(C)C[C@H](O)CC(=O)[O-]` [L-Carnitine], the Size result in series [1] is given as “No Effect”. The “HSP-6P::GFP” value in the series with hsp-6p::GFP was “No Effect”.
With `[Cl-].[Li+]` [Lithium Chloride], the Size entry in series [1] was “No Effect”. In addition, in the series on hsp-6p::GFP, the “HSP-6P::GFP” value is “Decrease”.
Take `[N-]=[N+]=[N-]` [NaN3, Sodium Azide]: in the series on Wild-type zebrafish (6-7 dpf), the “azide concentration giving reduced heartrate and neuromuscular (startle) response” value was determined as 100 µM. Further, in the series with Wild-type zebrafish (exposure from 6 dpf, by 7 dpf), the “NaN3 concentration at which brain death develops” value was found to be 100 µM and the “NaN3 concentration with complete penetrance of brain death phenotype” value is 150 µM. Further, in the series on SURF1-del1−/− zebrafish [2], the “NaN3 concentration of brain death onset” value worked out at 40 µM; the “NaN3 concentration with complete penetrance of brain death” value amounted to 50 µM; the “azide concentration at which bradycardia and reduced startle response start” value amounted to 40 µM.
Consider `CC(C)(Sc1cc(C(C)(C)C)c(O)c(C(C)(C)C)c1)Sc1cc(C(C)(C)C)c(O)c(C(C)(C)C)c1` [Probucol], for which the Size entry in series [1] is given as “No Effect”. Also, in the series on hsp-6p::GFP, the “HSP-6P::GFP” value was “No Effect”. Moreover, in the series on dldh−/− zebrafish, the “decrease in liver size / liver disease compared to untreated DLDH−/− larvae” value is reported as 49%.
In the case of `CO[C@H]1C[C@@H]2CC[C@@H](C)[C@@](O)(O2)C(=O)C(=O)N2CCCC[C@H]2C(=O)O[C@H]([C@H](C)C[C@@H]2CC[C@@H](O)[C@H](OC)C2)CC(=O)[C@H](C)/C=C(\C)[C@@H](O)[C@@H](OC)C(=O)[C@H](C)C[C@H](C)/C=C/C=C/C=C/1C` [Rapamycin], in series [1], the Size entry was “No Effect”. The “HSP-6P::GFP” value in the series with hsp-6p::GFP is listed as “No Effect”.
For the compound `Oc1ccc(C=Cc2cc(O)cc(O)c2)cc1` [Resveratrol], in series [1], the Size result is on record as “Increase”. Besides, the “HSP-6P::GFP” value with hsp-6p::GFP is “Increase”. Also, the “rescue of short lifespan of gas-1(fc21) to wild type N2 levels by individual compounds” value with gas-1(fc21) C. elegans is “partially or fully rescue”.
Regarding `Cc1cc2nc3c(=O)[nH]c(=O)nc-3n(C[C@H](O)[C@H](O)[C@H](O)CO)c2cc1C` [Riboflavin], in series [1], the “increase in worm growth (length)” value was found to be 33% and the Size entry was “Increase”. For the same compound, the “HSP-6P::GFP” value with hsp-6p::GFP is reported as “Increase”.
As to `NCCS(=O)(=O)O` [Taurine], in series [1], the Size result is “Increase”. Besides, in the series on hsp-6p::GFP, the “HSP-6P::GFP” value is reported as “Decrease”.
As to `Cc1ncc(C[n+]2csc(CCO)c2C)c(N)n1` [Thiamine], in series [1], the “increase in worm growth (length)” value came to 16% and the Size entry is “Increase”. Moreover, in the series on hsp-6p::GFP, the “HSP-6P::GFP” value is “Decrease”. In addition, the “reduction of UPRmt (HSP6::GFP fluorescence) relative to untreated DLD-1−/− worms” value in the series with hsp-6p::GFP (treatment from early development, 25 mM DCA, 25 mM Thiamine, adult day 1) is reported as 18%.
As for `NCCS.O=C(O)C(O)C(O)C(=O)O` (stereo not shown) [cysteamine bitartrate], in the series with SURF1-del1−/− zebrafish [3], the “brain death from NaN3 exposure” value is recorded as “prevented” and the “neuromuscular dysfunction (startle response) from NaN3 exposure” value was “prevented”.
Consider Vitamin E, for which, in series [1], the Size entry is on record as “No Effect”. Besides, in the series on hsp-6p::GFP, the “HSP-6P::GFP” value is given as “Increase”.
